The record followed here is patent publication US11505581B2, “Antigens and T cell epitopes from cockroach and methods of making and using same” (La Jolla Institute for Allergy and Immunology, priority 2015, dated 2022).

The test concerns PBMC. In words: ELISPOT (IFNγ, IL-5, IL-10, IL-17, IL-21) of PBMC expanded 14 days with Bla g extract, then stimulated with peptides or peptide pools. It counts as cell-based, human. On the set-up: key to Average Magnitude of Response: spot forming cells (SFC) per 10^6 PBMC; Response Rate per Subject: unit not given here; key to % (percentage of subjects responding to given antigen) / SFC (mean magnitude of response): “—” denotes no response. Conditions: for Average Magnitude of Response / Response Rate per Subject: non-redundant epitopes, sensitized donors; for T cell reactivity (cytokine release) to NBGA, in words: sensitized subjects, 2-week extract stimulation. On the procedure: PBMC Isolation and Cell Cultures: PBMC (peripheral blood mononuclear cells) were isolated from 450 mL (one unit) of blood by density gradient centrifugation as described and cryopreserved. For in vitro expansion of PBMC for peptide screening, cells were cultured in RPMI1640 (Omega Scientific)+5% human AB serum (Gemini Bioscience), GlutaMAX (Gibco), and penicillin/streptomycin (Omega Scientific) at 2×10^6 per mL, stimulated with 10 ug/mL Bla g extract (Greer), and incubated at 37° C. in 5% CO2. Every three days, IL-2 and IL-7 (10 U/mL) were added to the cultures. Cells were harvested for peptide screening at day 14.
ELISPOT Assays: Production of IFNγ, IL-5, IL-17, IL-10, and IL-21 (as representative of TH1, TH2, TH17, TR1, and […], respectively) in response to peptide stimulation was measured by ELISPOT as described previously. […] In brief, 1×10^5 cells per well were incubated with peptide, peptide pool, or Bla g extract (10, 5, and 10 ug/ml, respectively) on anti-lymphokine antibody coated ELISPOT plates (Millipore #MSIPS4510) for 22 hours. Subsequently, secondary anti-lymphokine antibodies were added and incubated for 2 hours, washed, and avidin-peroxidase complex added for 1 hour. Plates were washed and spots developed with 3-amino-9-ethylcarbazole (Sigma #A6926) and Vector Blue (Vector #SK-5300) for IFNγ/IL-5 and IL-10/IL-17 dual plates or TMB (Sigma #T0565) for single IL-21. Criteria for peptide pool positivity were at least 100 spot forming cells (SFC) per 10^6 PBMC, p<0.05, and stimulation index≥2. Criteria for peptide positivity were identical except with a threshold of 20 SFCs.
We synthetized overlapping peptide sets of 15 amino acids in length overlapping by 10 residues and covering the entire sequence of known Bla g Allergens, i.e. Bla g 1-7, 9 and 11, referred from hereafter collectively as BLAGA. A total of 809 BLAGA peptides were arranged in pools, encompassing on average 20 peptides.
To assess T cell reactivity, we utilized a strategy applied to the definition of epitopes from various allergen sources^15,16 utilizing in vitro stimulation with allergen extracts. Here, PBMC from each subject were stimulated in vitro with Bla g extract. After 14 days, pools of overlapping 15-mer peptides from the BLAGA were tested for responses, and positive pools deconvoluted to identify the specific epitopes. As readout, we utilized ELISPOT assays specific for IL-5, IFNγ, IL-10, IL-17 and IL-21, chosen as representative of TH2, TH1, TR1, TH17 and TFH reactivity, respectively.

Where [1] appears, read: Asthmatic (combines IA, MMA, SA).

Regarding RCGRSMQGYPFNPCL, the “Average Magnitude of Response” value was 20.4 and the “Response Rate per Subject” value is 10.0.
The corresponding values for RCNNVGIRIYVDVVL are 13.0 and 2.9.
The corresponding values for RDMVRRCNNVGIRIY are 5.2 and 5.7.
The corresponding values for RGNNAIKWLVNFGVG are 15.0 and 5.7.
RHNSAYKLHFNAFEY: the “Average Magnitude of Response” value stood at 44.0 and the “Response Rate per Subject” value was determined as 1.4.
The corresponding values for RIKAFLALVECPCNK are 4.2 and 1.4.
Taken in the same sequence, the figures for RILLRLHRCFQVLGR were 13.5 and 1.4.
Consider RLFGAEVGWLALHHN, for which the “Average Magnitude of Response” value worked out at 35.5 and the “Response Rate per Subject” value is on record as 1.4.
In the case of RSEERLATATAKLAE, the “Average Magnitude of Response” value came out at 13.3 and the “Response Rate per Subject” value was determined as 1.4.
The corresponding values for RVPFSHDDRLGFLTF are 34.2 and 7.1.
In the case of “RWRQIFNMVGFRNAV (listed as Blattella germanica)”, the “Average Magnitude of Response” value turned out to be 61.7 and the “Response Rate per Subject” value stood at 11.4.
As for “Receptor for activated protein kinase C [RACK1]”, the “T cell reactivity (cytokine release) to NBGA, in words” value is listed as “Significant reactivity”. Further, under “AR”, the “% (percentage of subjects responding to given antigen)” value was “—” and the “SFC (mean magnitude of response)” value is on record as “—”. Under setting [1], the “% (percentage of subjects responding to given antigen)” value was determined as 9% and the “SFC (mean magnitude of response)” value was 19 SFC. Also, where the note is “Controls”, the “% (percentage of subjects responding to given antigen)” value is reported as 2% and the “SFC (mean magnitude of response)” value is 30 SFC. Besides, under “IA”, the “% (percentage of subjects responding to given antigen)” value turned out to be 12% and the “SFC (mean magnitude of response)” value was determined as 31 SFC. Besides, for the setting “MMA”, the “% (percentage of subjects responding to given antigen)” value is listed as 11% and the “SFC (mean magnitude of response)” value stood at 3 SFC. In addition, for the setting “SA”, the “% (percentage of subjects responding to given antigen)” value was “—” and the “SFC (mean magnitude of response)” value is on record as “—”.
For SEVTALNRQIGGTPI, the “Average Magnitude of Response” value was 3.9 and the “Response Rate per Subject” value worked out at 2.9.
Taken in the same sequence, the figures for SHVHFRFVPSAAVEF were 3.3 and 1.4.
In the case of SINLMFSQMYHAQLA, the “Average Magnitude of Response” value came out at 4.3 and the “Response Rate per Subject” value was 1.4.
The corresponding values for SPYFVTNTEKMITEF are 13.6 and 2.9.
On to SSLFQVANQYTGILY, for which the “Average Magnitude of Response” value came out at 50.2 and the “Response Rate per Subject” value is recorded as 10.0.
The corresponding values for STSCNVVVASQECVG are 4.2 and 4.3.
Taken in the same sequence, the figures for STSLVKAHSMRNSAS were 19.9 and 4.3.
Taken in the same sequence, the figures for SVNATVVRLQSWQSE were 4.1 and 2.9.
For the substance TGILYKARLSLDRNE, the “Average Magnitude of Response” value is recorded as 4.3 and the “Response Rate per Subject” value came to 2.9.
Taken in the same sequence, the figures for THQFNVAGSVTVDKT were 5.6 and 2.9.
Taken in the same sequence, the figures for “TIPYYTKKFDEVVKA (listed as Blattella germanica)” were 311.6 and 11.4.
Regarding TKKFDEVVKANGGYL, the “Average Magnitude of Response” value is recorded as 24.3 and the “Response Rate per Subject” value was 4.3.
Triosephosphate isomerase [TPI]: the “T cell reactivity (cytokine release) to NBGA, in words” value is “Significant reactivity”. In addition, under “AR”, the “% (percentage of subjects responding to given antigen)” value is given as 6% and the “SFC (mean magnitude of response)” value turned out to be 13 SFC. Under setting [1], the “% (percentage of subjects responding to given antigen)” value is recorded as 11% and the “SFC (mean magnitude of response)” value came out at 31 SFC. Where the note is “Controls”, the “% (percentage of subjects responding to given antigen)” value is given as 2% and the “SFC (mean magnitude of response)” value is given as 17 SFC. For the setting “IA”, the “% (percentage of subjects responding to given antigen)” value is recorded as 6% and the “SFC (mean magnitude of response)” value is recorded as 6 SFC. Moreover, under “MMA”, the “% (percentage of subjects responding to given antigen)” value is given as 11% and the “SFC (mean magnitude of response)” value is listed as 83 SFC. Moreover, where the note is “SA”, the “% (percentage of subjects responding to given antigen)” value turned out to be 23% and the “SFC (mean magnitude of response)” value worked out at 54 SFC.
With “VAISRYLGKQFGLSG (listed as Blattella germanica)”, the “Average Magnitude of Response” value stood at 94.9 and the “Response Rate per Subject” value was determined as 8.6.
The corresponding values for VEALFLLMKADPSIH are 4.2 and 1.4.
As to VFIGKFYTEFDMENN, the “Average Magnitude of Response” value is 4.0 and the “Response Rate per Subject” value came to 2.9.
The corresponding values for VIYVQIRFSVRRFHP are 15.1 and 2.9.
The corresponding values for “VLEKLEAGFAKLAAS (listed as Blattella germanica)” are 65.5 and 14.3.
The corresponding values for VLGLPAIKAWVAKRP are 48.5 and 14.3.
For the substance VNQHKKAIEEDLKHF, the “Average Magnitude of Response” value is 4.0 and the “Response Rate per Subject” value is 2.9.
The corresponding values for VPIMNIYSAFEFDPN are 18.5 and 4.3.
Taken in the same sequence, the figures for VQKLQKEVDRLEDEL were 3.3 and 1.4.
The corresponding values for VVFDTGSSNLWVPSK are 4.7 and 4.3.
Turning to VVRLQSWQSEMLRMN, the “Average Magnitude of Response” value is listed as 6.4 and the “Response Rate per Subject” value was found to be 2.9.
For the substance VYEVAIPDRLTLRVE, the “Average Magnitude of Response” value was 3.4 and the “Response Rate per Subject” value is 2.9.
The corresponding values for WCNEEDHLRIISMQM are 13.1 and 7.1.
Taken in the same sequence, the figures for WVCEHRWRQIFNMVG were 33.9 and 4.3.
Taken in the same sequence, the figures for WVPSKKCHLTNIACL were 8.4 and 5.7.
As to “YFVAILDYLNHMAKE (listed as Blattella germanica)”, the “Average Magnitude of Response” value amounted to 137.2 and the “Response Rate per Subject” value worked out at 15.7.
The corresponding values for YHYDADENSKQKKWD are 3.7 and 2.9.
Consider YLGKQFGLSGKDDWE, for which the “Average Magnitude of Response” value turned out to be 22.6 and the “Response Rate per Subject” value was determined as 8.6.
